{"source": "patent US12121525B2", "about": "“Methods for treating GI syndrome and graft versus host disease” (Sloan Kettering Institute for Cancer Research, priority 2007, dated 2024)", "key": {"ASMase": {"target": "T1, ASMase (Homo sapiens, UniProt P17405)", "T1 construct": "Jurkat cells were lysed in PBS containing 0.2% Triton X-100; endogenous in cells; host or cells: Jurkat T lymphocytes (clone E6-1, ATCC)", "T1 sequence (P17405 47-631)": "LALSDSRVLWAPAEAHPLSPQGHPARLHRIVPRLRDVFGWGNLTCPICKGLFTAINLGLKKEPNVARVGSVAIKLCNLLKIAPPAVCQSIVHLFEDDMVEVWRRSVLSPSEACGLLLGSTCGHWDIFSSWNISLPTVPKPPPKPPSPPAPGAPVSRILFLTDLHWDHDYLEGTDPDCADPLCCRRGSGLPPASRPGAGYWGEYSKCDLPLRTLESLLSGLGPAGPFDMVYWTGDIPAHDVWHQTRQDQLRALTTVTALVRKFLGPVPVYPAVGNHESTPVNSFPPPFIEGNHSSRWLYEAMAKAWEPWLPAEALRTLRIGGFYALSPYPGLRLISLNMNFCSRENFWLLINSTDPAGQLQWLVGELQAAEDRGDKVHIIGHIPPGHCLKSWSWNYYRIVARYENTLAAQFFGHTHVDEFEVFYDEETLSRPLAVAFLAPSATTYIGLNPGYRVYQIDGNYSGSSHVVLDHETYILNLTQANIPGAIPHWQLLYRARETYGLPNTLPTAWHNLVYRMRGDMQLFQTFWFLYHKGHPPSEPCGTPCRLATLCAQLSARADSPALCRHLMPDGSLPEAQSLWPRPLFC", "assay": "ASMase activity assay in Jurkat cells stimulated with UV-C or anti-Fas", "assay_type": "cell-based", "protocol": "Others have shown that ceramide is required for Fas-induced apoptosis in some cell types. We looked at the requirement for UV-C-induced ceramide generation in initiating the apoptotic response. By UV-C is meant ultraviolet radiation in the 100-280 nm wavelength range. In these studies imipramine was used to inhibit ASMase-activity. Pre-treatment of Jurkat cells with […] imipramine for 30 min decreased baseline ASMase activity, abrogated UV-C and Fas-induced ASMase activation at 1 min post stimulation and ceramide generation at 2 minutes, and attenuated apoptosis at 4 hours post-stimulation. […] Grassme et al., J Biol Chem. 2001, 276:20589, incorporated herein by reference. […]\nASMase activity was measured using a fluorescence-based, high-performance liquid chromatographic (HPLC) assay^98. […] ASMase activity was measured by incubating an equal volume of lysate in assay buffer [500 μM BODIPY-C12 sphingomyelin (Molecular Probes, Eugene OR), 0.1 mM ZnCl2, 0.1 M sodium acetate pH 5.0 and 0.6% Triton X-100] for 60 min at 37° C. […] Fluorescence was quantified using a Waters 474 (Waters Corp.) fluorescence detector set to excitation and emission wavelengths of 505 and 540 nm, respectively. The amount of product generated was calculated using a regression equation derived from a standard curve established for known amounts of BODIPY-C12 ceramide standard. […]"}, "Jurkat cells [1]": {"tested_on": "Jurkat cells", "assay": "UV-C- and anti-Fas-induced apoptosis in Jurkat cells", "assay_type": "cell-based, human", "conditions": "50 mM imipramine 30 min; 4 hours post UV-C or Fas stimulation", "protocol": "(§1) Others have shown that ceramide is required for Fas-induced apoptosis in some cell types. We looked at the requirement for UV-C-induced ceramide generation in initiating the apoptotic response. By UV-C is meant ultraviolet radiation in the 100-280 nm wavelength range. In these studies imipramine was used to inhibit ASMase-activity. Pre-treatment of Jurkat cells with […] imipramine for 30 min decreased baseline ASMase activity, abrogated UV-C and Fas-induced ASMase activation at 1 min post stimulation and ceramide generation at 2 minutes, and attenuated apoptosis at 4 hours post-stimulation. […] Grassme et al., J Biol Chem. 2001, 276:20589, incorporated herein by reference.\nH. Grassme, H. Schwarz, and E. Gulbins, Biochem Biophys Res Commun 284 (4), 1016 (2001), incorporated herein by reference. […] Importantly, we also observed that anti-ceramide and nystatin pretreatment yielded an approximate 1 log increase in clonogenic cell survival compared to vehicle controls after 5-50 J/m^2 UV-C or anti-Fas stimulation. […]\nApoptosis was assessed in vitro by two different techniques. […] Morphologic changes of nuclear apoptosis including chromatin condensation, segmentation and compaction along the periphery of the nucleus or the appearance of apoptotic bodies were quantified using an Axiovert S-100 Zeiss fluorescence microscope as previously described ^33. […]"}, "Jurkat cells [2]": {"tested_on": "Jurkat cells", "assay": "Ceramide generation in Jurkat cells (diacylglycerol kinase assay)", "assay_type": "cell-based, human", "conditions": "50 mM imipramine 30 min; 2 minutes post UV-C or Fas stimulation", "protocol": "as §1\nJurkat cells, stimulated with UV-C or CH-11, were incubated for the indicated times at 37° C. Stimulation was terminated by the addition of 2 ml of chloroform:methanol:HCl (100:100:1,v/v/v), and ceramide was quantified by the diacyglycerol kinase assay, as described^97."}}}
{"molecule": "CN(C)CCCN1c2ccccc2CCc2ccccc21", "note": "[imipramine]", "values": [{"measurement": "UV-C and Fas-induced ASMase activation", "setting": "ASMase; 50 mM imipramine 30 min, 1 min post stimulation", "result": "abrogated"}, {"measurement": "baseline ASMase activity", "setting": "ASMase; pre-treatment with 50 mM imipramine for 30 min", "result": "decreased"}, {"measurement": "apoptosis", "setting": "Jurkat cells [1]", "result": "attenuated"}, {"measurement": "ceramide generation", "setting": "Jurkat cells [2]", "result": "abrogated"}]}
